Assay results as given in patent US5591709A, “Compositions and methods for treating wounds” (Life Medical Sciences, Inc., priority 1995, dated 1997).

System: 2×3 cm full-thickness skin wounds on the dorsum
Assay: Guinea pig full-thickness skin wound closure (fractional change in wound area, closure rate, peak closure day)
Format: in vivo, Hartley-derived guinea pigs
Details: for Peak Closure Day (% Closure): % closure at the peak closure day; for Peak Closure Day: day of maximum closure rate, gel every 48 hours; for Closure % (Day) 50%: day on which 50% wound closure was reached, gel about 1 cc/cm^2 every 48 hours; for Peak closure rate (comparison in words): hormones in Agarose in saline (no medium), singly or three together; for Peak closure rate occurred later / closure rate of 50% slower: single hormone in Agarose in media; for Peak closure rate occurred later: compared to Media+3 hormones together; for closure rate of 50% slower: compared to the combination of the three hormones in media; for wound healing activity in medium relative to the same in saline: Agarose in medium vs Agarose in saline (without medium); for closure of 50% faster: single hormone in Agarose in saline (no medium), comparator not clearly stated
Experimental: Under general anaesthesia of […], four 2×3 cm full-thickness skin patches were surgically extirpated from the dorsum of Hartley-derived guinea pigs. After application of the gel (about 1 cc/cm^2) to the wounds, the wounds were dressed with Omiderm, a polyurethane-based synthetic wound dressing (Omikron, Israel) and anchored with gauze and elastic adhesive bandage. Change of the bandages and administration of the gels were performed every 48 hours, under general anaesthesia, at which time in one group, the wounds were washed with ESDC disinfectant (Symbollon Corp., Mass., USA), washed with warm saline, measured and photographed. Computerized morphometric measurements of the photographs were made and the dynamics of the regeneration process were quantified and analyzed. A more detailed description and the results of these experiments is presented herein. Hartley-derived Albino guinea pigs weighing 300-400 grams were used in this study. The animals were housed in individual cages and fed regularly guinea pig chow and water enriched with Vitamin C ad libitum. […] All histological sections were prepared using Hematoxylene and Eosin stain as well as Mason's trichrome method for collagen. Each animal was anesthetized and four bilaterally symmetrical full-thickness skin segments measuring 2×3 cm were excised from the dorsum of each animal, two from the scapular region and two from the lumbar region. After washing the wounds with warm saline, the wounds were dressed with the gel at a concentration of about 1 cc/cm^2, covered with a polyurethane based synthetic membrane Omiderm (Omikron, Israel) and anchored with gauze, elastic adhesive and a […]., Italy). The dressings were changed every 48 hours under general anaesthesia, at which time the wounds were washed with warm saline to remove any debris and the remaining gel within the wound, measured, photographed and fresh gel was applied and the wounds dressed as described above. In one experiment, a disinfectant compress of ESDC (Symbollon, Corp.) was applied during the change of dressing for about ten minutes, preceded and followed by warm saline rinse. At days 4, 6, 8, 10 and 12, the animals were sacrificed and the wounds with the surrounding tissues were extirpated and prepared for histological examination. The thickness of the newly formed epithelial layer and of the underlying granulation tissue were measured using light microscopy (Zeiss) at 100×magnification. The wound macrophotographs were analyzed using ImageMeasure (Phoenix Corp., Seattle, Wash.) computerized morphometric program and the experimental results were plotted as graphs showing the fractional change in area (i.e. closure rate) of the wounds treated with gel-media+hormones versus the various controls. The wound closure rate was tabulated and peak closure day (% closure) was determined. Peak closure rate has been used as a measure of wound healing potency. Peak closure rate is the maximum slope of the [formula] vs. time curve. Peak closure rate indicates the time after the start of the treatment at which tissue healing or growth rate reaches a maximum value (maximum rate); i.e., when the treatment is optimal.

## N[C@@H](Cc1cc(I)c(Oc2cc(I)c(O)c(I)c2)c(I)c1)C(=O)O [thyroxine, reference compound]
Relative to triiodothyronine
  concentration level relative to triiodothyronine giving the same effect: 3-5 times

## Growth Hormone: human growth hormone at 2 ng/ml in Agarose gel, in saline or in medium
  Peak Closure Day (% Closure): 50%
  Peak Closure Day: 6.0 days
  Closure % (Day) 50%: 6.0 days
  Peak closure rate (comparison in words): the same
  Peak closure rate occurred later: 33%
  closure rate of 50% slower: 75%

## Insulin
  Peak Closure Day (% Closure): 30%
  wound healing activity in medium relative to the same in saline: substantially enhanced wound healing activity
  Peak Closure Day: 3.0 days
  Closure % (Day) 50%: 5.0 days
  Peak closure rate (comparison in words): the same
  Peak closure rate occurred later: 33%
  closure rate of 50% slower: 75%
  closure of 50% faster: 15%
Agarose in medium, IGF at 8 ng/ml, through day 9
  wound healing, medium plus insulin vs medium plus IGF: substantially better

## Triiodothyronine/thyroxine [reference compound]
  Peak Closure Day (% Closure): 30%
  wound healing activity in medium relative to the same in saline: substantially enhanced wound healing activity
  Peak Closure Day: 3.0 days
  Closure % (Day) 50%: 5.0 days
  Peak closure rate (comparison in words): the same
  Peak closure rate occurred later: 33%
  closure rate of 50% slower: 75%
  closure of 50% faster: 15%
